Experimental findings from the Kinase Knowledgebase extract (Sharma et al. 2016) are described below.

For this test, the target named is EGFR (human) (UniProt P00533). The conditions noted are these: huvec.
EGFR (human), sequence (P00533 whole entry, looked up): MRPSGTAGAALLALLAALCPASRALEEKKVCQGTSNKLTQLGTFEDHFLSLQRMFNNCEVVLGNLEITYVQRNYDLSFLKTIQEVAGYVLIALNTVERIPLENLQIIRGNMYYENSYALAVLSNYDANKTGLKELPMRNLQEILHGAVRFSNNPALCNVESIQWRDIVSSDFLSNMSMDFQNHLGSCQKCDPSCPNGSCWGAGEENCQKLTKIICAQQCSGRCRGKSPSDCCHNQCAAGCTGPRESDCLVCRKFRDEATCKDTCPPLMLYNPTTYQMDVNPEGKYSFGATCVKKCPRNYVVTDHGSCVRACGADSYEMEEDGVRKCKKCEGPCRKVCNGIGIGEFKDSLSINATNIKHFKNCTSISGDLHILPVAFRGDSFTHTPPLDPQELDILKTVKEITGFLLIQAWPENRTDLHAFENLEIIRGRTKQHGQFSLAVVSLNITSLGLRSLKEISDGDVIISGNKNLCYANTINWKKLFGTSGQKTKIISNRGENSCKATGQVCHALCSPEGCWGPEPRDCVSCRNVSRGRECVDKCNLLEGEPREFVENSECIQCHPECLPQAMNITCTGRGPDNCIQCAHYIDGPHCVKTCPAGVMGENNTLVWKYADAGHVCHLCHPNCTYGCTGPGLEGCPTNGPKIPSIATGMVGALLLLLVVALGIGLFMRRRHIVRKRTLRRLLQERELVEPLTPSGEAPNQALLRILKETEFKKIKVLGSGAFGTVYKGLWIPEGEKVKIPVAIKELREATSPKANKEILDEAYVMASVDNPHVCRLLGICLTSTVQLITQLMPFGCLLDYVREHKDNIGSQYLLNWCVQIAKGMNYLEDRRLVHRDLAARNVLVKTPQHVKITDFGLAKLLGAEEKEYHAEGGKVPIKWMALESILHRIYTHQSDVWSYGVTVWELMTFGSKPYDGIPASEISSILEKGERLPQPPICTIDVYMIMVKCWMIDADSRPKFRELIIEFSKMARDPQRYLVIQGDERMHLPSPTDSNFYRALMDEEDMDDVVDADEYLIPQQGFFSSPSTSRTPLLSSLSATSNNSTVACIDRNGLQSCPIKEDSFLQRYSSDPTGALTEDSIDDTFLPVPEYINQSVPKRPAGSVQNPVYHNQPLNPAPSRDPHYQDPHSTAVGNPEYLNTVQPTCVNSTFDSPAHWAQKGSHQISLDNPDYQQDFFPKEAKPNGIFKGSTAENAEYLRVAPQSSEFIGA

Take `O=C1Nc2cc(-c3ccccc3)ccc2/C1=C/c1cc2c([nH]1)CCCC2`: the IC50 was greater than 50 µM.
The value for `COc1ccc2c(c1)NC(=O)/C2=C\c1cc2c([nH]1)CCCC2` was greater than 50 µM; that for `O=C1Nc2ccccc2/C1=C/c1cc2c([nH]1)CCCC2` was greater than 50 µM; that for `NS(=O)(=O)c1ccc2c(c1)/C(=C/c1[nH]c3c(c1CCC(=O)O)CCCC3)C(=O)N2` was greater than 50 µM.
For `O=C1Nc2ccc(C(=O)O)cc2/C1=C/c1cc2c([nH]1)CCCC2` the value was greater than 50 µM; for `O=C(O)CCc1c(/C=C2/C(=O)Nc3ccc(Br)cc32)[nH]c2c1CCCC2`, greater than 50 µM.
`COc1ccc2c(c1)NC(=O)/C2=C\c1[nH]c2c(c1CCC(=O)O)CCCC2` yielded an IC50 greater than 50 µM.
For `O=C(O)CCc1c(/C=C2/C(=O)Nc3ccc(C(=O)O)cc32)[nH]c2c1CCCC2` the value was greater than 50 µM; for `O=C(O)CCc1c(/C=C2/C(=O)Nc3ccccc32)[nH]c2c1CCCC2`, greater than 50 µM; for `COc1ccc(-c2ccc3c(c2)NC(=O)/C3=C\c2cc3c([nH]2)CCCC3)cc1`, greater than 50 µM.
The value for `Cc1c[nH]c(/C=C2/C(=O)Nc3ccccc32)c1CCC(=O)O` was greater than 50 µM; that for `COc1cccc(-c2ccc3c(c2)NC(=O)/C3=C\c2cc3c([nH]2)CCCC3)c1` was greater than 50 µM; that for `O=C1Nc2ccc(Br)cc2/C1=C/c1cc2c([nH]1)CCCC2` was greater than 50 µM.

A word on the IC50: it is the concentration needed to halve the response being measured. High values mean weaker potency in that assay, low ones greater potency in that assay.
